Columns and labels:
Type in all cases: cell-based, human
[1] = system: osteoarthritis patient-derived chondrocytes; experiment: Cytotoxicity test (XTT method) on chondrocytes; settings: for Cell survival rate (%): relative to control (medium alone) = 100%
Method: Chondrocytes isolated from human articular cartilage tissues were used for cultured cells. After obtaining informed consent, cartilage tissues were collected from surgically-removed tissues from eight osteoarthritis patients. The collected tissues were sliced and then treated in a liquid low-glucose Dulbecco's modified Eagle's medium (DMEM, manufactured by Gibco Co.) containing 1.5 mg/ml collagenase B at 37° C. overnight, to isolate chondrocytes for culture. The cells were normally cultured in a culture flask (culture area: 25 cm^2), and in a polystyrene culture dish (diameter: 6 cm) for use in the experiments. The cell culture was performed using a DMEM medium added with inactivated fetal bovine serum (FBS, manufactured by TRACE Co.) at 10% volume of the medium, and also 2 mM L-glutamine, 25 mM HEPES, and penicillin and streptomycin at 100 units/ml, in either a CO2 incubator (normoxic condition) which was set at 5% CO2+95% air, or a low oxygen chamber (hypoxic condition) which was set at 1% O2+5% CO2+94% N2, at 37° C. under saturated humidity.
Influence of hydroxylated C60 fullerene on the survival rate of chondrocytes was evaluated by a cytotoxicity test (XTT method). Hydroxylated C60 fullerene (manufactured by Frontier Carbon Co.) was dissolved in polyethylene glycol to prepare a 10 mM stock, which was then stored in a dark place at −20° C. The concentration of hydroxylated C60 fullerene for the test was 1.0 μM, 10.0 μM, and 100.0 μM.
50 μl each of chondrocytes in the logarithmic growth phase were added into a 96-well microplate at the concentration of 5.0×10^5 cells/ml, and incubated in either a CO2 incubator (normoxic condition) or a low oxygen chamber (hypoxic condition) for 24 hours. Hydroxylated C60 fullerene was added into the 96-well microplate at each target concentration described above (final volume: 100 μl), and the cells were incubated for 48 hours or 96 hours. Then, the medium was replaced to remove hydroxylated C60 fullerene, and the cells were incubated for another 12 hours. To stain surviving cells, 50 μl XTT (2,3bis(2-methoxy-4-nitro-5-sulfophenyl)-5-[(phenylamino)carbonyl]-2H-tetrazolium hydroxide, inner salt) reagent was added to each well, and the cells were incubated for four hours. Immediately thereafter, the absorbance at 450 nm was measured with a plate reader and the cell survival rates were analyzed. The results are shown as survival rates. The survival rate of the control group in a medium alone without hydroxylated C60 fullerene was assumed to be 100%, and the survival rate of the hydroxylated C60 fullerene-administered groups is expressed as relative values against the control group.

[2] = system: MMP-1; experiment: MMP-1 production in cultured chondrocytes treated with cartilage degenerating factor (ELISA); settings: for Production of MMP-1: IL-1β or H2O2 treated chondrocytes, 50 or 100 μM, 24 h
Method: (§1) Chondrocytes isolated from human articular cartilage tissues were used for cultured cells. After obtaining informed consent, cartilage tissues were collected from surgically-removed tissues from eight osteoarthritis patients. The collected tissues were sliced and then treated in a liquid low-glucose Dulbecco's modified Eagle's medium (DMEM, manufactured by Gibco Co.) containing 1.5 mg/ml collagenase B at 37° C. overnight, to isolate chondrocytes for culture. The cells were normally cultured in a culture flask (culture area: 25 cm^2), and in a polystyrene culture dish (diameter: 6 cm) for use in the experiments. […]
(§2) Influence of hydroxylated C60 fullerene on cartilage matrix-degrading enzyme production which is enhanced by cartilage catabolism inducers was analyzed using the enzyme-linked immunoassay (ELISA) method.
(§3) Chondrocytes that had been isolated and cultured by the above method (1) were subjected to two passage cultures. […] After a 24 hour incubation, the culture supernatant was collected, and the concentrations of cartilage matrix-degrading enzymes, matrix metalloprotease (MMP)-1, 3, and 13, were measured.
(§4) The concentrations of MMP-1, MMP-3, and MMP-13 in the culture supernatant were determined using ELISA kits (kits for MMP-1 and MMP-3, manufactured by R&D Co.; and a kit for MMP-13, manufactured by Amersham), which is the standard technique currently known in the art. […] 100 μl of 1.5 N H3PO4 was added to each well to stop the color reaction, and the absorbance at 450 nm was measured using a microtiter plate reader. According to the instructions provided by the manufacturer, the measured concentrations were calibrated using a lyophilized control reagent.

[3] = system: MMP-3; experiment: MMP-3 production in cultured chondrocytes treated with cartilage degenerating factor (ELISA); settings: for Production of MMP-3: IL-1β or H2O2 treated chondrocytes, 50 or 100 μM, 24 h
Method: as §1, §2, §3, §4

[4] = system: MMP-13; experiment: MMP-13 production in cultured chondrocytes treated with cartilage degenerating factor (ELISA); settings: for Production of MMP-13: IL-1β or H2O2 treated chondrocytes, 50 or 100 μM, 24 h
Method: as §1, §2, §3, §4

hydroxylated C60 fullerene
Cell survival rate (%) ([1]; 1.0 μM, 48 hour incubation): 98.5 ± 6.5% | Cell survival rate (%) ([1]; 1.0 μM, 96 hour incubation): 99.6 ± 3.8% | Cell survival rate (%) ([1]; 10.0 μM, 48 hour incubation): 101.3 ± 5.8% | Cell survival rate (%) ([1]; 10.0 μM, 96 hour incubation): 98.2 ± 2.6% | Cell survival rate (%) ([1]; 100.0 μM, 48 hour incubation): 99.5 ± 4.2% | Cell survival rate (%) ([1]; 100.0 μM, 96 hour incubation): 103.4 ± 2.2% | Toxicity to chondrocytes ([1]; 1.0-100.0 μM, 48 or 96 hours): not to be toxic to chondrocytes | Production of MMP-1 [2]: inhibited in all cases | Production of MMP-1 ([2]; listed as fullerene): decreased the amount of MMP-1 produced | Inhibitory effect on production of MMP-1 ([2]; hypoxic condition): also observed | Production of MMP-3 [3]: inhibited in all cases | Production of MMP-3 ([3]; listed as fullerene): decreased the amount of MMP-3 produced | Inhibitory effect on production of MMP-3 ([3]; hypoxic condition): also observed | Production of MMP-13 [4]: inhibited in all cases | Production of MMP-13 ([4]; listed as fullerene): decreased the amount of MMP-13 produced | Inhibitory effect on production of MMP-13 ([4]; hypoxic condition): also observed

— patent publication US8395037B2, “Pharmaceutical compositions for treating/preventing motor organ diseases” (Mitsubishi Corporation, priority 2005, dated 2013)
